Data reported in ChEMBL document CHEMBL3751819, “Navigating into the chemical space between MGCD0103 and SAHA: novel histone deacetylase inhibitors as a promising lead” (Medchemcomm, 2015).

Experiments:
[1] = test system: HeLa; test: Induction of apoptosis in human HeLa cells assessed as necrotic cells at 5 uM after 48 hrs by annexin-V-FITC/propidium iodide staining based flow cytometry (reference value: 0.693%); format: functional
[2] = Half life in mouse microsomes; format: ADME, Microsome
[3] = test system: HeLa; test: Induction of cell cycle arrest in human HeLa cells assessed as accumulation at G0/G1 phase at 0.5 uM after 24 hrs by propidium iodide staining based flow cytometry (reference value: 0.5 to 0.52%); format: functional
[4] = Antiproliferative activity against human HCT116 cells assessed as reduction in cell viability after 72 hrs by MTT assay; format: functional, cell-based; details: HCT-116, 72 h
[5] = test system: MCF7; test: Antiproliferative activity against human MCF7 cells assessed as reduction in cell viability after 72 hrs by MTT assay; format: functional, cell-based; details: MCF7, 72 h
[6] = test system: HeLa; test: Induction of cell cycle arrest in human HeLa cells assessed as accumulation at G2/M phase at 0.5 uM after 24 hrs by propidium iodide staining based flow cytometry (reference value: 0.35 to 0.37%); format: functional
[7] = test system: HepG2; test: Antiproliferative activity against human HepG2 cells assessed as reduction in cell viability after 24 hrs by MTT assay; format: functional, cell-based; details: HepG2, 24 h
[8] = test system: HeLa; test: Induction of apoptosis in human HeLa cells assessed as viable cells at 2.5 uM after 48 hrs by annexin-V-FITC/propidium iodide staining based flow cytometry (reference value: 88.6%); format: functional; details: Homo sapiens, HeLa, 48 h; read-out: Activity
[9] = Half life in artificial intestinal fluid; format: ADME
[10] = target: Histone deacetylase 3 (Homo sapiens, UniProt O15379); test: Inhibition of HDAC3 (unknown origin) using Boc-Lys(acetyl)-AMC as substrate preincubated for 5 mins followed by substrate addition by fluorescence assay
[11] = Half life in mouse plasma; format: ADME, cell-free
[12] = test system: HeLa; test: Induction of apoptosis in human HeLa cells assessed as early apoptotic cells at 2.5 uM after 48 hrs by annexin-V-FITC/propidium iodide staining based flow cytometry (reference value: 1.4%); format: functional
[13] = test system: HeLa; test: Antiproliferative activity against human HeLa cells assessed as reduction in cell viability after 24 hrs by MTT assay; format: functional, cell-based
[14] = test system: MCF7; test: Antiproliferative activity against human MCF7 cells assessed as reduction in cell viability after 48 hrs by MTT assay; format: functional, cell-based; details: MCF7, 48 h
[15] = test system: HeLa; test: Induction of apoptosis in human HeLa cells assessed as late apoptotic cells at 5 uM after 48 hrs by annexin-V-FITC/propidium iodide staining based flow cytometry (reference value: 9.3%); format: functional
[16] = test system: HeLa; test: Induction of apoptosis in human HeLa cells assessed as early apoptotic cells at 5 uM after 48 hrs by annexin-V-FITC/propidium iodide staining based flow cytometry (reference value: 1.4%); format: functional
[17] = test system: HeLa; test: Induction of apoptosis in human HeLa cells assessed as necrotic cells at 1.25 uM after 48 hrs by annexin-V-FITC/propidium iodide staining based flow cytometry (reference value: 0.693%); format: functional
[18] = test system: HeLa; test: Induction of cell cycle arrest in human HeLa cells assessed as accumulation at G2/M phase at 2 uM after 24 hrs by propidium iodide staining based flow cytometry (reference value: 0.35 to 0.37%); format: functional
[19] = test system: HeLa; test: Induction of cell cycle arrest in human HeLa cells assessed as accumulation at S phase at 0.5 uM after 24 hrs by propidium iodide staining based flow cytometry (reference value: 0.12 to 0.13%); format: functional
[20] = test system: HepG2; test: Antiproliferative activity against human HepG2 cells assessed as reduction in cell viability after 72 hrs by MTT assay; format: functional, cell-based; details: HepG2, 72 h
[21] = test system: HeLa; test: Antiproliferative activity against human HeLa cells assessed as reduction in cell viability after 48 hrs by MTT assay; format: functional, cell-based
[22] = test system: A549; test: Antiproliferative activity against human A549 cells assessed as reduction in cell viability after 24 hrs by MTT assay; format: functional, cell-based; details: A549, 24 h

Chain of Histone deacetylase 3 (O15379 whole entry): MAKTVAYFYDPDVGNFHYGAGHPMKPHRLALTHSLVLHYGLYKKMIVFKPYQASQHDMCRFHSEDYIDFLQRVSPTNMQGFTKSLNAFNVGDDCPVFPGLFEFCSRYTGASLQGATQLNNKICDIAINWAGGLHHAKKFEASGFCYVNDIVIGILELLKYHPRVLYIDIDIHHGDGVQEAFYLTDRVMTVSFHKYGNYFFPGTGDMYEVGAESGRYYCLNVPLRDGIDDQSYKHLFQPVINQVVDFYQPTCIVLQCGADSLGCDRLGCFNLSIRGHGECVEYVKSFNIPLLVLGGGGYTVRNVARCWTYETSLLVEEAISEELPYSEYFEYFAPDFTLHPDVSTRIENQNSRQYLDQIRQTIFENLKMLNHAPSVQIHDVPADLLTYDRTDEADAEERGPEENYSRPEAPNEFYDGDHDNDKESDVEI

| Compound | Activity [1] | half-life [2] | Activity [3] | IC50 [4] | IC50 [5] | Activity [6] | IC50 [7] | viability at 2.5 µM [8] | half-life [9] | IC50 [10] | half-life [11] | Activity [12] | IC50 [13] | IC50 [14] | Activity [15] | Activity [16] | Activity [17] | Activity [18] | Activity [19] | IC50 [20] | also measured |
| --- | --- | --- | --- | --- | --- | --- | --- | --- | --- | --- | --- | --- | --- | --- | --- | --- | --- | --- | --- | --- | --- |
| O=C(NO)c1ccc(CNc2nccc(-c3cccnc3)n2)cc1 | 0.536% | 2.87 h | 0.56% | 1.66 µM | 2.41 µM | 0.31% | 22.9 µM | 81.1% | > 24 h | 0.102 µM | 12 h | 6.33% | 30.7 µM | 16 µM | 11.7% | 11.1% | 0.94% | 0.04% | 0.13% | 2.96 µM | IC50 [21]: 7.23 µM |
| O=C(/C=C/c1ccc(CNc2nccc(-c3cccnc3)n2)cc1)NO | 0.858% | 2.5 h | 0.58% | 1.05 µM | 2.66 µM | 0.3% | 20.5 µM | 79.6% | > 24 h | 0.113 µM | 10 h | 6.59% | 53.4 µM | 23 µM | 12.4% | 10.2% | 0.924% | 0.09% | 0.13% | 6.52 µM | IC50 [22]: 98 µM; IC50 [21]: 3.79 µM |
